In patent US20140005163A1 (NOVARTIS AG, priority 2010, published 2014):

Assays:
[1] = molecular target: T1, mTOR (Homo sapiens, UniProt P42345); test: Biochemical assay for m-TOR by TR-FRET; conditions: 8 μM ATP, 400 nM GFP-4EBP1, 0.5 nM mTOR
T1 construct: purchased Invitrogen Corporation (Carlsbad/CA, USA) PV4753
Protocol: Biochemical Assay for m-TOR by TR-FRET.
Assay components are purchased from Invitrogen Corporation (Carlsbad/CA, USA): GFP-4EBP1 (Cat. No. PV4759), Tb3+-α-p4EBP1 [pThr46] Antibody (Cat. No. PV4757), proprietary TR-FRET dilution buffer (Cat. No. PV3574), mTOR protein (Cat. No. PV4753).
Then 5 μL of ATP (8 μM final concentration) and GFP-4EBP1 (400 nM final concentration) with 5 μL mTOR proteins (0.5 nM final concentration) are incubated at rt. The standard reaction buffer for the TR-FRET mTOR assay contained 50 mM HEPES pH 7.5, 10 mM MnCl2, 50 mM NaCl, 1 mM EGTA, 1 mM DTT. Reactions were stopped with 10 μL of a mixture of EDTA containing the Tb3+-α-p4EBP1-[pT46] detection Ab (0.5 nM) in TR-FRET dilution buffer (proprietary to IVG). Plates are read 15 mins later in a Synergy2 reader using an integration time of 0.2 seconds and a delay of 0.1 seconds. […] A standard compound is used as a reference compound and included in all assay plates in the form of 16 dilution points in duplicate.

[2] = tested on: PKB Ser473 phosphorylation in Rat1-myr-HA-p110 alpha cells; test: Reverse protein array assay, PKB Ser473 phosphorylation in Rat1-myr-p110 alpha cells; format: cell-based; conditions: 0.5 h, pAkt Ser473, 30 minutes compound incubation, read-out: p-PKB IC50
Protocol: (§1) The Rat1-myr-HA-p110 alpha, beta and delta cells were trypsinized and counted with a CASY TT cell counter (Schärfe System GmbH, Reutlingen Germany). […] The plates were incubated at 37° C. and 5% CO2 under humidified condition for at least 20 h. Compound of formula I working solutions were prepared freshly as serial 8 step dilutions (vol/vol) in DMSO on the day of the experiment. […] The final DMSO concentration was kept constant at 0.2%. cell culture medium containing 0.2% DMSO was used as vehicle treatment control. Post incubation, the cells were treated with the serial compound dilution. 50 μl of the compound medium mixture was added to the wells containing cells and 150 μl DMEM medium and incubated for 30 minutes (37° C., 5% CO2). After 30 minutes of incubation, the medium mixture was quickly removed by aspiration. […] 50 μl of the described lysis buffer mix was added to each well, followed by 10 minutes of incubation on ice.
(§2) The samples were spotted onto ZeptoMARKt PWG protein microarray chips (Zeptosens, Witterswil, Switzerland) with the piezoelectric microdispense-based, non-contact Nano-Plotter 2.1 (GeSiM, Grosserkmannsdorf, Germany). Each sample was spotted at 4 different sample concentrations (d1=100%, d2=75%, d3=50%, d4=25%) by diluting the cell lysate with the corresponding volume of lysis buffer mix. After spotting the ZeptoMARK® protein microarrays, the chips are incubated for 1 hour at 37° C. […] After 20 minutes of blocking the chips are extensively rinsed with deionized water (Milli-Q quality, 18MΩ×cm) and dried in a nitrogen air flow.
(§3) After incubation, the arrays were washed twice with 200 μl CAB1 buffer. […] The fluorescence signal was assessed with exposure times of 1, 3, 5 and 10 seconds, depending on the intensity of the signal. The resulting four images taken per array are stored as 16-bit TIF files.
(§4) The fluorescence images for each array were analyzed with the ZeptoVIEW Pro 2.0 software (Zeptosens, Witterswil, Switzerland) and the relative fluorescence intensity for each signal was calculated.

[3] = tested on: PKB Ser473 phosphorylation in Rat1-myr-HA-p110 beta cells; test: Reverse protein array assay, PKB Ser473 phosphorylation in Rat1-myr-p110 beta cells; format: cell-based; conditions: 0.5 h, pAkt Ser473, 30 minutes incubation, read-out: p-PKB IC50
Protocol: as §1, §2, §3, §4

[4] = tested on: PKB Ser473 phosphorylation in Rat1-myr-HA-p110 delta cells; test: Reverse protein array assay, PKB Ser473 phosphorylation in Rat1-myr-p110 delta cells; format: cell-based; conditions: read-out: p-PKB IC50
Protocol: as §1, §2, §3, §4

[5] = tested on: S6 Ribosomal Protein phosphorylation Ser235/236 in TSC1 null mouse embryo fibroblast (MEF) cells; test: Reverse protein array assay, S6 Ribosomal Protein phosphorylation Ser235/236 in TSC1 null MEF cells; format: cell-based; conditions: 1 h, pS6 ribosomal protein Ser235/236, 60 minutes incubation, read-out: p-S6 IC50
Protocol: as §1, with “TSC1−/−” for “Rat1-myr-HA-p110 alpha, beta and delta”, “(Schirfe” for “(Schärfe”, “Working” for “Compound of formula I working”, “0.02%.” for “0.2%.”, “0.02%” for “0.2%”, “60” for “30”
The spotting of the chips follows the previous described method.

[6] = molecular target: T2, PI3K alpha (Homo sapiens, UniProt P42336); test: PI3K alpha kinase assay (Kinase-Glo luminescence); format: biochemical
T2 construct: p85(iSH2) fusion partner (see partner chain) (N); His tag (C); made in house; host or cells: baculovirus; Tn5 (Trichoplusia ni) or TiniPro insect cells
T2 sequence (P42336 with tags, fused parts or gaps limits assumed): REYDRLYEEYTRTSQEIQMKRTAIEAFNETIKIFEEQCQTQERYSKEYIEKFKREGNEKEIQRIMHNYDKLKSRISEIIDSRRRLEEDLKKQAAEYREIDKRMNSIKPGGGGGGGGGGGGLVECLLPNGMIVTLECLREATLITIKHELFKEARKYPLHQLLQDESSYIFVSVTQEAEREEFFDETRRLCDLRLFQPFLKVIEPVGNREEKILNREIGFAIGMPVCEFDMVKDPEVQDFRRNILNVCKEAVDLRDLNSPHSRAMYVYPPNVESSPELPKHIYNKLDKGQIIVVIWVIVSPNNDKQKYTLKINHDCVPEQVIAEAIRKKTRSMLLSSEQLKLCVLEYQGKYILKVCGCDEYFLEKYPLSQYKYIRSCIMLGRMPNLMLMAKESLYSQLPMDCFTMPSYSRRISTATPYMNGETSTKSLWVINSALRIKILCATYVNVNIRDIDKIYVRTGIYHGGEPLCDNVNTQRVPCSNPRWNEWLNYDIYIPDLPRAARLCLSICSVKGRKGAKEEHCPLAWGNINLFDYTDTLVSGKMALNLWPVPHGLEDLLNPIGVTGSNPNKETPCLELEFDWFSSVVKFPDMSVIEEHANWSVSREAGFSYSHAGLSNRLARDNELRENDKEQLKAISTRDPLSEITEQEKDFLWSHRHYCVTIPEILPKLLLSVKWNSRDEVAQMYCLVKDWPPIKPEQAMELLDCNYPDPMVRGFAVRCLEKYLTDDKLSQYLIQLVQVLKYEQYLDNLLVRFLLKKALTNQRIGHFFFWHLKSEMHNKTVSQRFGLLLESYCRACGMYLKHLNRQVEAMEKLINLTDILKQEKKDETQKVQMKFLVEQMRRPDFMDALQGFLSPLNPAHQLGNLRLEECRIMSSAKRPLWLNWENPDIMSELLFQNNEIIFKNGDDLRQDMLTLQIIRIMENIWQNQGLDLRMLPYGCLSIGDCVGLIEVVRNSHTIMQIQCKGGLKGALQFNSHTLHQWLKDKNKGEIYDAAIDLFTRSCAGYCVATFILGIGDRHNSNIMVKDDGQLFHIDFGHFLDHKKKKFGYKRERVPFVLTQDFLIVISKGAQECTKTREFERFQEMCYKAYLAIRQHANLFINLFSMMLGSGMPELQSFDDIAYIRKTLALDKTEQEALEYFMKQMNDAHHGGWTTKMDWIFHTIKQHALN
Protocol: (§5) In a more preferred assay, the kinase reaction is performed in a final volume of 10 μL per well of a low volume non binding CORNING, 384 well black plate (Cat. No. #3676). The final concentrations of ATP and phosphatidyl inositol (PI) in the assay are 1 μM and 10 μg/mL respectively. The reaction is started by the addition of ATP.
(§6) The components of the assay are added per well as follows:
(§7) […] in 90% DMSO per well, in columns 1-20, 8 concentrations (1/3 and 1/3.33 serial dilution step) in single. • Low control: […] of 90% DMSO in half the wells of columns 23-24 (0.45% in final). • High control: […] of reference compound (e.g. compound of Example 7 in WO 2006/122806) in the other half of columns 23-24 (2.5 μM in final). • Standard: […] of reference compound as just mentioned diluted as the test compounds in columns 21-22 • 20 mL ‘buffer’ are prepared per assay: • 200 μL of 1M TRIS HCl pH7.5 (10 mM in final) • 60 μL of 1M MgCl2 (3 mM in final) • 500 μL of 2M NaCl (50 mM in final) • 100 μL of 10% CHAPS (0.05% in final) • 200 μL of 100 mM DTT (1 mM in final) • 18.94 mL of nanopure water • 10 mL ‘PI’ are prepared per assay: • 200 μL of 1 mg/ml L-alpha-Phosphatidylinositol (Liver Bovine, Avanti Polar Lipids Cat. No. 840042C MW=909.12) prepared in 3% OctylGlucoside (10 μg/ml in final) • 9.8 mL of ‘buffer’ • 10 mL ‘ATP’ are prepared per assay: • 6.7 μL of 3 mM stock of ATP giving a final concentration of 1 μM per well • 10 mL of ‘buffer’ • 2.5 mL of each PI3K construct are prepared per assay in ‘PI’ with the following final concentration: • 10 nM PI3K alfa EMV B1075 • 25 nM beta EMV BV949 • 10 nM delta EMV BV1060 • 150 nM gamma EMV BV950 • 5 μL of ‘PI/PI3K’ are added per well. • 5 μl ‘ATP’ are added per well to start the reaction. • The plates are then incubated at room temperature for 60 minutes (alfa, beta, delta) or 120 minutes (gamma). • The reaction is terminated by the addition of 10 μL Kinase-Glo (Promega Cat. No. #6714). • The assay plates are read after 10 minutes in Synergy 2 reader (BioTek, Vermont USA) with an integration time of 100 milliseconds and sensitivity set to 191. • Output: The High control is around 60'000 counts and the Low control is 30'000 or lower • This luminescence assay gives a useful Z′ ratio between 0.4 and 0.7
Two different constructs, BV 1052 and BV 1075, are used to generate the PI3 Kinase a proteins for compound screening.
(§8) IC50 is determined by a four parameter curve fitting routine that comes along with “excel fit”. […] Alternatively, IC50 values are calculated using idbsXLfit model 204, which is a 4 parameter logistic model.

[7] = molecular target: T3, PI3K delta (Homo sapiens, UniProt O00329); test: PI3K delta kinase assay (Kinase-Glo luminescence); format: biochemical
T3 construct: for the full-length p110-d subunit are generated and fused by overlapping PCR; p85(iSH2) fusion partner (see partner chain) (N); His tag (C); made in house; host or cells: baculovirus; Tn5 (Trichoplusia ni) or TiniPro insect cells
T3 sequence (O00329 with tags, fused parts or gaps limits assumed): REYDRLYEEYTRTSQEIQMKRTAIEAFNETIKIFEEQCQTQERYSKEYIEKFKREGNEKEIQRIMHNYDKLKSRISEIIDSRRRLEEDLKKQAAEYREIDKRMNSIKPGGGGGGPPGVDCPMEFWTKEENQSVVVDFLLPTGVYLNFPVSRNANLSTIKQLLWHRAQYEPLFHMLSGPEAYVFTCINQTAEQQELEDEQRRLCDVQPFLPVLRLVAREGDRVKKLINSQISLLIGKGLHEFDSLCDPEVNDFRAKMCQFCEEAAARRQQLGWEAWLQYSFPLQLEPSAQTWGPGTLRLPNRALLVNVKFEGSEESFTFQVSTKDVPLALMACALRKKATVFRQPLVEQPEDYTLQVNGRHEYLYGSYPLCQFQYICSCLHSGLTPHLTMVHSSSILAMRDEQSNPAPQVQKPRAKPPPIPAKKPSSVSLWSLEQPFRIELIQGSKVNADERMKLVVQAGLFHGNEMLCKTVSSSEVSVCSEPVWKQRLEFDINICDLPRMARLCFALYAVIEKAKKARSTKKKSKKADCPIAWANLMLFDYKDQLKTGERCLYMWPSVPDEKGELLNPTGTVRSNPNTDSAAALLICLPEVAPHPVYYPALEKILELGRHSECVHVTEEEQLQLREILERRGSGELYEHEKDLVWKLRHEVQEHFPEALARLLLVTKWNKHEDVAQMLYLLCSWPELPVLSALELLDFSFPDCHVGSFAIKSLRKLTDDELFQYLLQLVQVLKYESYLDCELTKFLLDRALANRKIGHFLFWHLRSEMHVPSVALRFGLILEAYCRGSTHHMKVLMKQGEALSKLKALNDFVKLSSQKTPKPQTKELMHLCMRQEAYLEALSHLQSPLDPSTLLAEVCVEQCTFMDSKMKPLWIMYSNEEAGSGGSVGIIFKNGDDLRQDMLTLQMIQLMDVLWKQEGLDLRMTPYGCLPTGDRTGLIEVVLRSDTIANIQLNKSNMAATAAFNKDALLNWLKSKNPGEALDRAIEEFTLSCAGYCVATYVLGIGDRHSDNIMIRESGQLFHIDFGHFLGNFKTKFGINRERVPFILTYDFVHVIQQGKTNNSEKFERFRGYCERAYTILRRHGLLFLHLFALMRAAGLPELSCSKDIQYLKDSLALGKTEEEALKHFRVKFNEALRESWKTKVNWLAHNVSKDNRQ
Protocol: as §5, §6, §7
PI3Kγ BV-1060 p85(iSH2)-Gly Linker-p110d(Full-Length)-C-Term his Tag
as §8

T1 sequence (P42345 1360-2549 limits assumed): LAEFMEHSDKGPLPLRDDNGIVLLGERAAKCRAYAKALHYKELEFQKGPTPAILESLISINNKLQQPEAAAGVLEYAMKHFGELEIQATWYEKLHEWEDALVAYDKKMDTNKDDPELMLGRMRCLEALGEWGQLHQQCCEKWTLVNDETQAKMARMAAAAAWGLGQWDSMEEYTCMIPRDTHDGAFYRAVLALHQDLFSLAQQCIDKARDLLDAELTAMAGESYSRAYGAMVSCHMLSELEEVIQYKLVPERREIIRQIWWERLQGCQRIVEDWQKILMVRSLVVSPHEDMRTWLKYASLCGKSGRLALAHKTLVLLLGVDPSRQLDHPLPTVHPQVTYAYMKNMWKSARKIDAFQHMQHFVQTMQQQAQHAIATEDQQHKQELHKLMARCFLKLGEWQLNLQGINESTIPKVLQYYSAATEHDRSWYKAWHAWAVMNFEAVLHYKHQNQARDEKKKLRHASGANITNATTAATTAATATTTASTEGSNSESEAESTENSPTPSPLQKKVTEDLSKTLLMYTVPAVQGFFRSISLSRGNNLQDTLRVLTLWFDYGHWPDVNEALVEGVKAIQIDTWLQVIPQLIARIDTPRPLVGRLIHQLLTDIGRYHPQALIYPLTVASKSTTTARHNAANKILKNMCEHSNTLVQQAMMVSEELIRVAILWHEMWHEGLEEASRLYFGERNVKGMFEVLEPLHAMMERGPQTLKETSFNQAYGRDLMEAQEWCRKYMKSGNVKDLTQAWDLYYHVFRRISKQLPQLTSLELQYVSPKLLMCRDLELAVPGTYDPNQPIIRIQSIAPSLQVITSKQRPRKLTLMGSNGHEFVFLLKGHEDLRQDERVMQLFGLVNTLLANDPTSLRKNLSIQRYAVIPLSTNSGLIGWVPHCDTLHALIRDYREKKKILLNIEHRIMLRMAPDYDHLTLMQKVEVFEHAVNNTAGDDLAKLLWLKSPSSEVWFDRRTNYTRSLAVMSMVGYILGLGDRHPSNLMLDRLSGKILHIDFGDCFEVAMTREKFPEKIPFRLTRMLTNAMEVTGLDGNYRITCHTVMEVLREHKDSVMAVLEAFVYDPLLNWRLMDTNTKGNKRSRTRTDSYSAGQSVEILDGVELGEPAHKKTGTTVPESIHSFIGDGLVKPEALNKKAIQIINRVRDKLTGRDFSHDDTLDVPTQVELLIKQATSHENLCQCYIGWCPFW

With COc1ccc(-c2ccc3ncc4c(c3c2)n(-c2cn(C)nc2Cl)c(=O)n4C)cc1OC [1.10—] as the compound, how does the IC50 [1] read?
Its IC50 is 14 nM.

For COc1ccc(-c2ccc3ncc4c(c3c2)n(-c2cnn(C)c2C)c(=O)n4C)cc1OC [Example 1.1, 8-(3,4-Dimethoxy-phenyl)-1-(1,5-dimethyl-1H-pyrazol-4-yl)-3-methyl-1,3-dihydro-imidazo[4,5-c]quinolin-2-one], which IC50 [2] is on record?
The IC50 was 22 nM.

And the IC50 [3]?
The IC50 was 66 nM.

What about the IC50 [4] of the same compound?
Its IC50 is 81 nM.

And the IC50 [5]?
The IC50 was 4 nM.

Which IC50 [2] does the source give for CCn1nccc1-n1c(=O)n(C)c2cnc3ccc(-c4ccc(N(C)C)nc4)cc3c21 [Example 4.8, 8-(6-Dimethylamino-pyridin-3-yl)-1-(2-ethyl-2H-pyrazol-3-yl)-3-methyl-1,3-dihydro-imidazo[4,5-c]quinolin-2-one] here?
The IC50 was 158 nM.

What about the IC50 [3] of the same compound?
The IC50 was 154 nM.

And the IC50 [4]?
The IC50 was 278 nM.

What about the IC50 [1] of the same compound?
Its IC50 is 251 nM.

Which results are given for Cc1nn(C)cc1-n1c(=O)n(C)c2cnc3ccc(-c4ccc(-n5ccnc5C)nc4)cc3c21 [Example 78, 1-(1,3-Dimethyl-1H-pyrazol-4-yl)-3-methyl-8-[6-(2-methyl-imidazol-1-yl)-pyridin-3-yl]-1,3-dihydro-imidazo[4,5-c]quinolin-2-one]?
IC50 [2]: 264 nM; IC50 [3]: 386 nM; IC50 [4]: 959 nM

Which IC50 [2] does the source give for CCOc1cc(-c2ccc3ncc4c(c3c2)n(-c2cn(C)nc2C)c(=O)n4C)cnc1OC [Example 94, 1-(1,3-Dimethyl-1H-pyrazol-4-yl)-8-(5-ethoxy-6-methoxy-pyridin-3-yl)-3-methyl-1,3-dihydro-imidazo[4,5-c]quinolin-2-one] here?
The IC50 was under 5 nM.

What about the IC50 [3] of the same compound?
Its IC50 is 11 nM.

And the IC50 [4]?
Its IC50 is 9 nM.

How did the IC50 [1] turn out when Cc1nn(CC(=O)N2CCN(C)CC2)cc1-n1c(=O)n(C)c2cnc3ccc(-c4ccccc4)cc3c21 [Example 134, 3-Methyl-1-{3-methyl-1-[2-(4-methyl-piperazin-1-yl)-2-oxo-ethyl]-1H-pyrazol-4-yl}-8-phenyl-1,3-dihydro-imidazo[4,5-c]quinolin-2-one] was run?
Its IC50 is 100 nM.

And the IC50 [6]?
The IC50 was 543 nM.

For COc1cc(-c2ccc3ncc4c(c3c2)n(-c2cn(C)nc2C)c(=O)n4C)cnc1OC [Example 204, 8-(5,6-Dimethoxy-pyridin-3-yl)-1-(1,3-dimethyl-1H-pyrazol-4-yl)-3-methyl-1,3-dihydro-imidazo[4,5-c]quinolin-2-one], which IC50 [2] is on record?
Its IC50 is 8 nM.

And the IC50 [3]?
Its IC50 is 12 nM.

What about the IC50 [4] of the same compound?
Its IC50 is 9 nM.

What about the IC50 [5] of the same compound?
Its IC50 is under 0.5 nM.

Which IC50 [2] does the source give for CO[C@H]1CCN(c2ccc(-c3ccc4ncc5c(c4c3)n(-c3cn(C)nc3C)c(=O)n5C)cn2)C1 [Example 213.2, 1-(1,3-Dimethyl-1H-pyrazol-4-yl)-8-[6-((S)-3-methoxy-pyrrolidin-1-yl)-pyridin-3-yl]-3-methyl-1,3-dihydro-imidazo[4,5-c]quinolin-2-one] here?
Its IC50 is 58 nM.

What about the IC50 [7] of the same compound?
Its IC50 is 211 nM.

What about the IC50 [3] of the same compound?
The IC50 was 119 nM.

And the IC50 [1]?
The IC50 was 123 nM.

And the IC50 [6]?
The IC50 was 220 nM.

How did the IC50 [2] turn out when Cc1nn(C)cc1-n1c(=O)n(C)c2cnc3ccc(-c4ccc(NC5CCOCC5)nc4)cc3c21 [Example 214, 1-(1,3-Dimethyl-1H-pyrazol-4-yl)-3-methyl-8-[6-(tetrahydro-pyran-4-ylamino)-pyridin-3-yl]-1,3-dihydro-imidazo[4,5-c]quinolin-2-one] was run?
Its IC50 is 285 nM.

What about the IC50 [3] of the same compound?
Its IC50 is 608 nM.

What about the IC50 [5] of the same compound?
The IC50 was 46 nM.

Which results are given for Cc1nn(CC(=O)N2CCN(C)CC2)cc1-n1c(=O)n(C)c2cnc3ccc(-c4cnc(N5CCCC5)nc4)cc3c21 [Example 247.5, 3-Methyl-1-{3-methyl-1-[2-(4-methyl-piperazin-1-yl)-2-oxo-ethyl]-1H-pyrazol-4-yl}-8-(2-pyrrolidin-1-yl-pyrimidin-5-yl)-1,3-dihydro-imidazo[4,5-c]quinolin-2-one]?
IC50 [2]: 828 nM; IC50 [1]: 99 nM; IC50 [6]: 971 nM; IC50 [5]: 201 nM
